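1) Cells in 96-well plates. 2) Compound, 48 h, 5 concentrations. 3) Linear interpolation between surrounding doses. 4) Unreached endpoint = highest concentration. GI50 is the concentration that inhibits growth by half. TGI: concentration producing complete growth inhibition.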
Legend:
Assay in all cases: DTP human tumour cell line panel, 48 h
SF-268 CNS = system: SF-268 CNS
U251 CNS = system: U251 CNS
A498 renal = system: A498 renal
SR leukemia = system: SR leukemia
HCC-2998 colon = system: HCC-2998 colon
PC-3 prostate = system: PC-3 prostate
NCI-H522 lung = system: NCI-H522 lung
OVCAR-3 ovarian = system: OVCAR-3 ovarian
HOP-62 NSCLC = system: HOP-62 NSCLC
SNB-75 CNS = system: SNB-75 CNS

Compound | GI50 (SF-268 CNS) | TGI (SF-268 CNS) | GI50 (U251 CNS) | TGI (U251 CNS) | GI50 (A498 renal) | TGI (A498 renal) | GI50 (SR leukemia) | TGI (SR leukemia) | GI50 (HCC-2998 colon) | TGI (HCC-2998 colon) | GI50 (PC-3 prostate) | TGI (PC-3 prostate) | GI50 (NCI-H522 lung) | TGI (NCI-H522 lung) | GI50 (OVCAR-3 ovarian) | TGI (OVCAR-3 ovarian) | GI50 (HOP-62 NSCLC) | TGI (HOP-62 NSCLC) | GI50 (SNB-75 CNS) | TGI (SNB-75 CNS)
Oc1c(CNCCNCc2cc(Cl)cc(Cc3ccccc3)c2O)cc(Cl)cc1Cc1ccccc1 | 0.224 µM | > 100 µM | 0.297 µM | 14.4 µM | 1.22 µM | 8.88 µM | 0.376 µM | > 100 µM | 0.451 µM | 10.1 µM | 0.62 µM | > 100 µM | 0.546 µM | 25.6 µM | 0.428 µM | 31.1 µM | 0.307 µM | 47.3 µM | 1.65 µM | 50.2 µM
CCN(Cc1cccc(F)c1F)c1ccc(CO)c(Cl)c1 | 19.3 µM | 42.7 µM | 0.63 µM | 22.2 µM | 0.0217 µM | 0.102 µM | 18.8 µM | 43.7 µM | 5.09 µM | 24.6 µM | 15.4 µM | 37.2 µM | 14.1 µM | 31.2 µM | 0.304 µM | 1.28 µM | 1.82 µM | 24.6 µM | 12.4 µM | 40.5 µM
NC(CO)C(=O)NCC(=O)O (stereo not drawn) | – | > 100 µM | – | > 100 µM | – | > 100 µM | – | > 100 µM | – | > 100 µM | – | > 100 µM | – | > 100 µM | – | > 100 µM | – | > 100 µM | – | > 100 µM
CSc1nc(N)c2c(n1)NC(c1ccccc1)C1CCc3ccccc3C1=N2 (stereo not drawn) | > 100 µM | > 100 µM | > 100 µM | > 100 µM | > 100 µM | > 100 µM | 1.65 µM | 5.54 µM | > 100 µM | > 100 µM | 2.56 µM | > 100 µM | 2.59 µM | 8.84 µM | 6.85 µM | > 100 µM | > 100 µM | > 100 µM | > 100 µM | > 100 µM
Clc1ccc(N2CCC(N3CCCC3)CC2)cc1-c1nc2ccccc2[nH]1 | 15.4 µM | 31.8 µM | 16.7 µM | 35.1 µM | 12.8 µM | 27.8 µM | 20.1 µM | 58.7 µM | 18.6 µM | 37.4 µM | 30.9 µM | > 100 µM | 19.1 µM | 38.7 µM | 17.8 µM | 40.4 µM | 19.8 µM | 40.1 µM | 15.5 µM | 39 µM
CN(C)CCNc1nc2ccccc2c2occc12 | 46.6 µM | > 100 µM | 45.3 µM | > 100 µM | 48.5 µM | 81.6 µM | 21.3 µM | 54.4 µM | 36 µM | 89.5 µM | 36 µM | > 100 µM | 62.3 µM | > 100 µM | 97.2 µM | > 100 µM | 96.2 µM | > 100 µM | 11.8 µM | > 100 µM
Nc1cc2nc3ccccc3oc-2cc1=O | 4.85 µM | > 57.2 µM | 1.73 µM | 12.3 µM | 5.44 µM | 11.1 µM | 9.93 µM | > 75.3 µM | 4.34 µM | 17.4 µM | 16.7 µM | > 100 µM | 3.45 µM | 10.1 µM | 3.54 µM | 29.3 µM | 2.94 µM | 6.64 µM | 1.82 µM | 4.63 µM
CC1(C)CC(=O)c2c(ccc(C(=O)C[C@@H](N)CO)c2N)O1 | 0.667 µM | > 89.5 µM | 0.328 µM | > 100 µM | 0.921 µM | 27.7 µM | 0.15 µM | – | 0.371 µM | 4.63 µM | 2.1 µM | > 100 µM | 0.919 µM | 15.3 µM | 0.431 µM | > 38.2 µM | 0.643 µM | > 49.1 µM | 17.7 µM | > 100 µM
C#C/C=C/CC1OC(C(Br)CC)CC(Br)C2CC1O2 (stereo not drawn) | – | > 100 µM | – | > 100 µM | – | > 100 µM | – | > 100 µM | – | > 100 µM | – | > 100 µM | – | 21.1 µM | – | > 100 µM | – | > 100 µM | – | > 100 µM
CNC(=O)c1cc2c(Oc3ccc(NC(=S)NC(=O)Cc4ccccc4)cc3F)ccnc2cc1OC | 4.51 µM | > 100 µM | > 100 µM | > 100 µM | 1.1 µM | 4.35 µM | 5.78 µM | > 100 µM | > 100 µM | > 100 µM | 16.7 µM | > 100 µM | 10 µM | > 100 µM | > 28.6 µM | > 100 µM | 22.6 µM | > 100 µM | 0.183 µM | 4.68 µM
Cc1cc(S(N)(=O)=O)c(S/C(=N\Nc2ccc([N+](=O)[O-])cc2)c2ccc3ccccc3c2)cc1Cl | 10.1 µM | 44.4 µM | 19.7 µM | 59.4 µM | – | – | 42.6 µM | > 100 µM | 14.7 µM | 30.1 µM | 14.2 µM | 27.4 µM | 22.9 µM | > 100 µM | 17.5 µM | 58.5 µM | 22.8 µM | 68.5 µM | 56.7 µM | > 100 µM
COC(=O)[C@@H](OC)[C@@H]1Cc2cc3cc(OC4CC(OC5CC(O)C(O)C(C)O5)C(O)C(C)O4)c(C)c(O)c3c(O)c2C(=O)[C@H]1OC1CC(OC2CC(OC3CC(C)(O)C(O)C(C)O3)C(O)C(C)O2)C(O)C(C)O1 (stereo partly drawn) | 0.0455 µM | > 7.49 µM | 0.0385 µM | > 16.5 µM | 0.0277 µM | 0.0717 µM | 0.0103 µM | > 16.5 µM | 0.0365 µM | 0.252 µM | 0.0429 µM | 0.188 µM | 0.0358 µM | 0.172 µM | – | – | 0.0312 µM | 1.8 µM | 0.0212 µM | 0.0487 µM
C[C@]12CC[C@@H]3c4ccc(O)cc4CC[C@H]3[C@@H]1CC[C@@H]2NS(=O)(=O)c1ccc2ccccc2c1 | 3.68 µM | 18.4 µM | 3.6 µM | 15.4 µM | 1.72 µM | 4.01 µM | 3.72 µM | 95 µM | 4.24 µM | 15.5 µM | 2.75 µM | 17.3 µM | – | – | 2.63 µM | 7.3 µM | 5.87 µM | 20.2 µM | 2.1 µM | 12.6 µM
